Measurements from patent US10544130B2, “Metallo-beta-lactamase inhibitors” (priority 2015, dated 2020).

Tested on: Pseudomonas aeruginosa PAO1 MB9798 (efflux+, IMP-1)
Settings: ratio MITC95 PA 9798/MITC95 PA 9799; imipenem at 2 μg/mL
Outline: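 Isogenic PAO1 pair (efflux+ MB9798, efflux− MB9799, both IMP-1) tested by microbroth MIC with fixed imipenem and/or ceftazidime, usually at CLSI breakpoint, plus fixed class A/C inhibitor against AmpC. MBL inhibitor titrated; concentration restoring susceptibility recorded and fold difference between strains taken as efflux extent.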

Which Efflux ratio does the source give for `Nc1nc2c(-c3ccc(S(=O)(=O)NCCO)c(S(N)(=O)=O)c3-c3nn[nH]n3)cccc2s1` [Example 144, 4-(2-aminobenzo[d]thiazol-4-yl)-N1-(2-hydroxyethyl)-3-(2H-tetrazol-5-yl)benzene-1,2-disulfonamide] here?
Its Efflux ratio is 1.00.

For `Nc1nc2c(-c3ccc(S(N)(=O)=O)c(S(N)(=O)=O)c3-c3nn[nH]n3)cccc2o1` [Example 4, 4-(2-aminobenzo[d]oxazol-4-yl)-3-(2H-tetrazol-5-yl)benzene-1,2-disulfonamide], which Efflux ratio is on record?
The Efflux ratio was 1.00.

Which Efflux ratio does the source give for `COC(=O)[C@H]1C[C@@H](NS(=O)(=O)c2ccc(-c3cccc4sc(N)nc34)c(-c3nnn[nH]3)c2S(N)(=O)=O)CN1` [Example 128, Methyl(2R,4R)-4-((4-(2-aminobenzo[d]thiazol-4-yl)-2-sulfamoyl-3-(1H-tetrazol-5-yl)phenyl)sulfonamido)pyrrolidine-2-carboxylate] here?
Its Efflux ratio is 1.00.

`NC[C@@H](O)CNS(=O)(=O)c1ccc(-c2ccc(N)nc2)c(-c2nn[nH]n2)c1S(N)(=O)=O` [Example 303, (R)-N1-(3-amino-2-hydroxypropyl)-4-(6-aminopyridin-3-yl)-3-(2H-tetrazol-5-yl)benzene-1,2-disulfonamide] was tested. Which Efflux ratio did it give?
Its Efflux ratio is 1.00.

For `Nc1nc2c(-c3ccc(S(=O)(=O)N4CCC(CO)CC4)c(S(N)(=O)=O)c3-c3nnn[nH]3)cccc2s1` [Example 25, 3-(2-amino-1,3-benzothiazol-4-yl)-6-{[4-(hydroxymethyl)piperidin-1-yl]sulfonyl}-2-(1H-tetrazol-5-yl)benzenesulfonamide], which Efflux ratio is on record?
The Efflux ratio was 16.00.

`Cn1c(N)nc2c(-c3ccc(S(=O)(=O)NCCCN)c(S(N)(=O)=O)c3-c3nn[nH]n3)cccc21` [Example 183, 4-(2-amino-1-methyl-1H-benzo[d]imidazol-4-yl)-N^1-(3-aminopropyl)-3-(2H-tetrazol-5-yl)benzene-1,2-disulfonamide] was tested. Which Efflux ratio did it give?
Its Efflux ratio is 1.00.

How did the Efflux ratio turn out when `Nc1nc2c(-c3ccc(S(=O)(=O)NC4C[C@@H]5CN[C@H]4C5)c(S(N)(=O)=O)c3-c3nnn[nH]3)cccc2s1.O=CO` (stereo partly drawn) [Example 119, 4-(2-aminobenzo[d]thiazol-4-yl)-N1-((1S,4R)-2-azabicyclo[2.2.1]heptan-6-yl)-3-(1H-tetrazol-5-yl)benzene-1,2-disulfonamide, formate salt] was run?
The Efflux ratio was 0.50.

With `Nc1nc2c(-c3ccc(S(=O)(=O)NCC4CCNC4)c(S(N)(=O)=O)c3-c3nnn[nH]3)cccc2s1.O=CO` (stereo not shown) [Example 120, 3-((4-(2-aminobenzo[d]thiazol-4-yl)-2-sulfamoyl-3-(1H-tetrazol-5-yl)phenylsulfonamido)methyl)pyrrolidin-1-ium formate] as the compound, how does the Efflux ratio read?
Its Efflux ratio is 0.50.

`NC[C@H](O)CNS(=O)(=O)c1ccc(-c2ccncc2N)c(-c2nn[nH]n2)c1S(N)(=O)=O` [Example 222, (S)—N1-(3-amino-2-hydroxypropyl)-4-(3-aminopyridin-4-yl)-3-(2H-tetrazol-5-yl)benzene-1,2-disulfonamide] was tested. Which Efflux ratio did it give?
Its Efflux ratio is 1.00.

With `CN(C)C1CN(S(=O)(=O)c2ccc(-c3cccc4sc(N)nc34)c(-c3nnn[nH]3)c2S(N)(=O)=O)C1` [Example 39, 3-(2-amino-1,3-benzothiazol-4-yl)-6-{[3-(dimethylamino)azetidin-l-yl]sulfonyl}-2-(1H-tetrazol-5-yl)benzenesulfonamide] as the compound, how does the Efflux ratio read?
The Efflux ratio was 16.00.

For `NCCNC(=O)c1cccc(-c2ccc(S(=O)(=O)NCCN)c(S(N)(=O)=O)c2-c2nn[nH]n2)c1N` [Example 204, 2-amino-N-(2-aminoethyl)-4′-(N-(2-aminoethyl)sulfamoyl)-5′-sulfamoyl-6′-(2H-tetrazol-5-yl)biphenyl-3-carboxamide], which Efflux ratio is on record?
The Efflux ratio was 1.00.

For `Nc1nc2c(-c3ccc(S(=O)(=O)NC[C@@H](N)CO)c(S(N)(=O)=O)c3-c3nn[nH]n3)cccc2[nH]1` [Example 190, 4-(2-amino-1H-benzo[d]imidazol-4-yl)-N1-((R)-2-amino-3-hydroxypropyl)-3-(2H-tetrazol-5-yl)benzene-1,2-disulfonamide], which Efflux ratio is on record?
Its Efflux ratio is 0.50.

For `NCCNS(=O)(=O)c1ccc(-c2cccc3cn[nH]c23)c(-c2nn[nH]n2)c1S(N)(=O)=O` [Example 9, N^1-(2-aminoethyl)-4-(1H-indazol-7-yl)-3-(2H-tetrazol-5-yl)benzene-1,2-disulfonamide], which Efflux ratio is on record?
The Efflux ratio was 0.50.

For `C[C@H](N)CNS(=O)(=O)c1ccc(-c2cccc3[nH]c(N)nc23)c(-c2nn[nH]n2)c1S(N)(=O)=O` [Example 184, 4-(2-amino-1H-benzo[d]imidazol-4-yl)-N1-((S)-2-aminopropyl)-3-(2H-tetrazol-5-yl)benzene-1,2-disulfonamide], which Efflux ratio is on record?
The Efflux ratio was 1.00.

Which Efflux ratio does the source give for `C[C@H](N)CC(=O)NS(=O)(=O)c1ccc(-c2cccc3[nH]c(N)nc23)c(-c2nn[nH]n2)c1S(N)(=O)=O` [Example 208, (S)-3-amino-N-((4-(2-amino-1H-benzo[d]imidazol-4-yl)-2-sulfamoyl-3-(2H-tetrazol-5-yl)phenyl)sulfonyl)butanamide] here?
Its Efflux ratio is 1.00.

How did the Efflux ratio turn out when `NS(=O)(=O)c1c(S(=O)(=O)N[C@@H]2CCNC2)ccc(-c2cccc3c2OC(F)(F)O3)c1-c1nnn[nH]1` [Example 131, (R)-4-(2,2-difluorobenzo[d][1,3]dioxol-4-yl)-N1-(pyrrolidin-3-yl)-3-(1H-tetrazol-5-yl)benzene-1,2-disulfonamide] was run?
The Efflux ratio was 16.00.

Which Efflux ratio does the source give for `Nc1ncccc1-c1ccc(S(=O)(=O)N[C@H]2C[C@@H]2N)c(S(N)(=O)=O)c1-c1nn[nH]n1` [Example 216, N1-((1S)-2-aminocyclopropyl)-4-(2-aminopyridin-3-yl)-3-(2H-tetrazol-5-yl)benzene-1,2-disulfonamide] here?
Its Efflux ratio is 4.00.

How did the Efflux ratio turn out when `Nc1nc2c(-c3ccc(S(=O)(=O)NCC4(N)CC4)c(S(N)(=O)=O)c3-c3nn[nH]n3)cccc2s1` [Example 149, 4-(2-aminobenzo[d]thiazol-4-yl)-N1-((1-aminocyclopropyl)methyl)-3-(2H-tetrazol-5-yl)benzene-1,2-disulfonamide] was run?
The Efflux ratio was 1.00.

For `Nc1nc2c(-c3ccc(S(=O)(=O)N[C@@H]4CN[C@@H](CO)C4)c(S(N)(=O)=O)c3-c3nnn[nH]3)cccc2s1` [Example 79, 4-(2-amino-1,3-benzothiazol-4-yl)-N1-[(3S,5R)-5-(hydroxymethyl)pyrrolidin-3-yl]-3-(1H-tetrazol-5-yl)benzene-1,2-disulfonamide], which Efflux ratio is on record?
The Efflux ratio was 0.50.

`Nc1nc2c(-c3ccc(S(=O)(=O)N4CCC[C@@H](N)C4)c(S(N)(=O)=O)c3-c3nnn[nH]3)cccc2s1` [Example 68, 3-(2-amino-1,3-benzothiazol-4-yl)-6-{[(3R)-3-aminopiperidin-1-yl]sulfonyl}-2-(1H-tetrazol-5-yl)benzenesulfonamide] was tested. Which Efflux ratio did it give?
Its Efflux ratio is 2.00.

How did the Efflux ratio turn out when `COCCNCCNS(=O)(=O)c1ccc(-c2cccc3sc(N)nc23)c(-c2nnn[nH]2)c1S(N)(=O)=O` [Example 85, 4-(2-aminobenzo[d]thiazol-4-yl)-N1-(2-((2-methoxyethyl)amino)ethyl)-3-(1H-tetrazol-5-yl)benzene-1,2-disulfonamide] was run?
Its Efflux ratio is 1.00.

Which Efflux ratio does the source give for `Nc1nc2c(-c3ccc(S(=O)(=O)N[C@@H]4CN[C@H](CO)C4)c(S(N)(=O)=O)c3-c3nnn[nH]3)cccc2s1` [Example 80, 4-(2-amino-1,3-benzothiazol-4-yl)-N1-[(3S,5S)-5-(hydroxymethyl)pyrrolidin-3-yl]-3-(1H-tetrazol-5-yl)benzene-1,2-disulfonamide] here?
Its Efflux ratio is 1.00.
